Assay results from patent US6479554B2, “Immunotherapeutic agents” (Celgene Corporation, priority 1996, dated 2002).

| SMILES | melting point |
| --- | --- |
| CC=C(c1ccccc1)c1ccc(OC)c(OC)c1 [Example 5, 1-(3,4-Dimethoxyphenyl)-1-phenylprop-1-ene] | 72 to 73 °C |
| CC=C(c1ccc(OC)c(OC)c1)c1ccc(OC)c(OCC)c1 [Example 6, 1-(3,4-Dimethoxyphenyl)-1-(3-ethoxy-4-methoxyphenyl)prop-1-ene] | 65.5 to 68 °C |
| CCOc1cc(C(=CC#N)c2ccccc2)ccc1OC [Example 8, 3-(3-Ethoxy-4-methoxyphenyl)-3-phenylacrylonitrile] | 74 to 77 °C |
| COc1cc(OC)cc(C(=CC#N)c2ccc(OC)c(OC)c2)c1 [Example 10, 3-(3,4-Dimethoxyphenyl)-3-(3′,5′-dimethoxyphenyl)-acrylonitrile] | 88 to 90 °C |
| COc1ccc(C(=O)c2cccc(N)c2)cc1OC [Example 13, 3,4-Dimethoxy-3′-aminobenzophenone] | 157 to 175 °C |
| COc1ccc(C(=O)c2ccc(N)cc2)cc1OC [Example 16, 3,4-Dimethoxy-4′-aminobenzophenone] | 189 to 191 °C |
| COc1ccc(C(=CC#N)c2ccncc2)cc1OC [Example 22, 3-(3,4-Dimethoxyphenyl)-3-pyridin-4-ylacrylonitrile] | 116 to 125 °C |
| COc1ccc(C(=CC#N)c2ccccn2)cc1OC [Example 23, 3-(3,4-Dimethoxyphenyl)-3-pyridin-2-ylacrylonitrile] | 134.5 to 135.5 °C |
| COc1ccc(C(=CC#N)c2ccco2)cc1OC [Example 24, 3-(3,4-Dimethoxyphenyl)-3-(2-furyl)acrylonitrile] | 78 to 82 °C |
| CCc1ccc(C(=CC#N)c2ccc(OC)c(OC)c2)cc1CC [Example 26, 3-(3,4-Diethylphenyl)-3-(3,4-dimethoxyphenyl)acrylonitrile] | 78 to 82 °C |
| COc1ccc(C(=O)c2c(OC)cccc2OC)cc1OC [Example 30, 2′,6′,3,4-Tetramethoxybenzophenone] | 128 to 129 °C |

Further lines, results first:

| melting point | SMILES |
| --- | --- |
| 117.5 to 120 °C | COc1ccc(C(=CC#N)c2cccc([N+](=O)[O-])c2)cc1OC [Example 11, 3-(3,4-Dimethoxyphenyl)-3-(3′-nitrophenyl)acrylonitrile] |
| 117.5 to 120 °C | COc1ccc(C(=CC#N)c2ccc([N+](=O)[O-])cc2)cc1OC [Example 14, 3-(3,4-Dimethoxyphenyl)-3-(4-nitrophenyl)acrylonitrile] |
| 83.5 to 86.5 °C | COc1ccc(C(=CC#N)c2ccc(C)cc2)cc1OC [Example 17, 3-(3,4-Dimethoxyphenyl)-3-(4-methylphenyl)acrylonitrile] |
| 132 to 134 °C | COc1ccc(C(=CC#N)c2ccc(-c3ccccc3)cc2)cc1OC [Example 18, 3-(4-Biphenylyl)-3-(3,4-dimethoxyphenyl)acrylonitrile] |
| 100 to 102 °C | COc1ccc(C(=CC#N)c2ccc(F)cc2)cc1OC [Example 19, 3-(3,4-Dimethoxyphenyl)-3-(4′-fluorophenyl)acrylonitrile] |
| 121 to 123 °C | COc1ccc(C(=CC#N)c2ccc3ccccc3c2)cc1OC [Example 20, 3-(3,4-Dimethoxyphenyl)-3-naphth-2-ylacrylonitrile] |
| 121 to 123 °C | COc1ccc(C(=CC#N)c2ccc3c(c2)OCO3)cc1OC [Example 21, 3-(3,4-Dimethoxyphenyl)-3-(3,4-methylenedioxyphenyl)acrylonitrile] |
